Assay results reported in US20110008461A1 (priority 2008, published 2011).
Where “and” joins values, the source holds several entries; their conditions need not be identical. Equal values may be shown once. Where a name gives a salt, the structure may show the parent alone. Read-outs that look alike come from different tables or passages of the source. Marks after values point to notes of the source that are not given here.

Columns and labels:
[1] = biological target: T1, Rat Liver Cytosolic Phosphoenolpyruvate Carboxykinase (Rattus norvegicus, UniProt P07379); assay: Continuous spectrophotometric PEPCK inhibition assay coupled to malate dehydrogenase (preliminary screen, inhibition patterns, Dixon plots); details: for Inhibition of PEPCK (in words): against PEP;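 on all read-outs here: PEPCK activity followed continuously via malate dehydrogenase coupling, where OAA reduction consumes NADH, seen as falling absorbance at 340 nm, run at 35 °C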
T1 sequence (P07379 1-622): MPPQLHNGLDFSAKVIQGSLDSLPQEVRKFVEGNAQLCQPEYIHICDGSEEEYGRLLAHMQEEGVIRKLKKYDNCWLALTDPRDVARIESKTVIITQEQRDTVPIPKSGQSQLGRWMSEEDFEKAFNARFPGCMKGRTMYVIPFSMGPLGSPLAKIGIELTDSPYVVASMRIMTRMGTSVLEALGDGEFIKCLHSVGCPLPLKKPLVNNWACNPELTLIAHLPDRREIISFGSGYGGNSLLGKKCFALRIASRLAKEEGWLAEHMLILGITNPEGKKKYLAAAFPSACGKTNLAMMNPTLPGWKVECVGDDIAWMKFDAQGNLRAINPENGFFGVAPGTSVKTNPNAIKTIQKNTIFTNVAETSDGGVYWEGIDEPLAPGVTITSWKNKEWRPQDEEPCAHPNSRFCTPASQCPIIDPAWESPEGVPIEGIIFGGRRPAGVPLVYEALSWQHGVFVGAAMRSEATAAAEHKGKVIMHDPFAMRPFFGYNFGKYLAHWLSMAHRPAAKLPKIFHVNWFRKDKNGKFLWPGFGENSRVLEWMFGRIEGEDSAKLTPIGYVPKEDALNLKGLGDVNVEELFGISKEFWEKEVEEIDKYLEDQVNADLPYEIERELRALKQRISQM
Description: TES (pH 7.2), 7.5% glycerol (v:v), 0.2 mM EDTA.
The inhibition of PEPCK by various compounds was evaluated using a continuous spectrophotometric assay in which the coupling enzyme, malate dehydrogenase, reduced OAA to malate concomitant with the oxidation of NADH to NAD^+. The decrease in absorbance at 340 nm was monitored using a Beckman DU-70 Spectrophotometer equipped with a temperature controller. The standard 1-mL reaction mixture for the production of OAA contained 56 mM HEPES-KOH buffer (pH 7.0), 1 mM IDP (or alternatively, 0.1 mM GDP), 23 U malate dehydrogenase (1 unit of malate dehydrogenase is defined as 1 mole malate produced/min/mg protein), 0.25 mM NADH, 2.3 mM MnCl2, and 48 mM NaHCO3. […] All assay components except PEPCK were preincubated in the cuvette for 3 min at 35° C., the standard assay temperature.
The kinetic parameters for the inhibition studies were best fit to the equations for competitive inhibition (Eq. 1) and noncompetitive inhibition (Eq. 2), using the computer program and nomenclature of Cleland (Cleland, W. W. (1979) Statistical analysis of enzyme kinetic data. Methods Enzymol 63, 103-138).
v=VA/[K(1+1/Kis)+A] (Eq. 1)
v=VA/[K(1/Kis)+A(1+1/Kii)] (Eq. 2)
The parameters are defined as follows: v is the initial velocity, V is the maximal rate of product formation in the absence of inhibitor, A is the concentration of the variable substrate, K is the apparent Michaelis constant for the varied substrate, and Kis and Kii are the inhibition constants.

[2] = biological target: T2, cytosolic PEPCK (Rattus norvegicus, UniProt P07379); assay: Kinetic data for MPA binding to the allosteric site of PEPCK; format: biochemical
T2 sequence (P07379 1-622): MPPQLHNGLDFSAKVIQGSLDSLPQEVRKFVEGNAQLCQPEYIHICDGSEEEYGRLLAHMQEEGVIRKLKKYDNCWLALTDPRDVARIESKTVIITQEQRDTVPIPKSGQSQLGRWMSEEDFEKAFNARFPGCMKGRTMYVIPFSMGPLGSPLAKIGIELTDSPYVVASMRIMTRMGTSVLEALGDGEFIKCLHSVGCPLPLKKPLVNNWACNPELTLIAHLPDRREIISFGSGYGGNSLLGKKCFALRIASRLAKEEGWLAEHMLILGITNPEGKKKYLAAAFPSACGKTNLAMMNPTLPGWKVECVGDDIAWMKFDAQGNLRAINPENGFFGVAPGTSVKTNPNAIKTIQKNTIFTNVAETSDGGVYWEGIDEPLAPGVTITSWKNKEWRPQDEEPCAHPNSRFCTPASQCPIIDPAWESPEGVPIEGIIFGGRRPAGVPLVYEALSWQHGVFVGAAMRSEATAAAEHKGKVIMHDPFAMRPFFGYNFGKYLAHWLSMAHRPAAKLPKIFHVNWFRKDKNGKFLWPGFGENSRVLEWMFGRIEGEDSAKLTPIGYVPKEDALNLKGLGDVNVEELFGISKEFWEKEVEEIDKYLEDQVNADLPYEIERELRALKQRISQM

[3] = biological target: T3, PEPCK (Rattus norvegicus, UniProt P07379); assay: Kinetic analysis of CMMP inhibition of PEPCK against PEP (FIG. 5); format: biochemical
T3 sequence (P07379 1-622): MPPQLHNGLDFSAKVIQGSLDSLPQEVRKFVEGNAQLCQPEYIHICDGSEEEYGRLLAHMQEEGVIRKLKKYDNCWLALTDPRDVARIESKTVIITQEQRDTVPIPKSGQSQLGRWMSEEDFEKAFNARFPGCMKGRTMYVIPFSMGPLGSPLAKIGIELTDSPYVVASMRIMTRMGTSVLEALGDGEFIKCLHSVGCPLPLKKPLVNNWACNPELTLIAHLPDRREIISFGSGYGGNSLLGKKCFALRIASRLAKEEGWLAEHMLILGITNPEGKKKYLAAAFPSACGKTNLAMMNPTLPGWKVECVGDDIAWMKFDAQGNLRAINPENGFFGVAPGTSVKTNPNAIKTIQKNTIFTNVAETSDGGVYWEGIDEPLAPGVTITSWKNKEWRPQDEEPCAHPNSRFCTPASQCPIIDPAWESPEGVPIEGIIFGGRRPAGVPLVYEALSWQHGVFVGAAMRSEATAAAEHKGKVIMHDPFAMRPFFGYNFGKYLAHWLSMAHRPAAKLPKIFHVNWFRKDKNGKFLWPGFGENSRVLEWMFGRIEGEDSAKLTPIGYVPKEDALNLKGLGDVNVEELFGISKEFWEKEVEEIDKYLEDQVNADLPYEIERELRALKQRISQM
Description: The ‘I’ values given in the legend are the concentrations of CMMP used in uM.
This was originally supported by the inhibition of PEPCK by sulfoacetate. […] Based upon that work, we proposed a novel scaffold to be utilized in the development of molecules that bridge these two sub-sites with and in doing so would gain potency and, perhaps more importantly with a metabolic enzyme like PEPCK, specificity. This scaffold is Formulas C, E, and/or G and an example is CMMP. […] This molecule thereby gains both potency and specificity for PEPCK. […] The information obtained from FIGS. 4 and 5 indicate that derivatives of CMMP, as shown by the scaffolds of Formulas E and G, are likely to be similarly effective as CMMP.

[4] = substrate: C=C(OP(=O)(O)O)C(=O)O; assay: cells, lysate or membranes named; details: other: substrate, determined under the same assay conditions
[5] = analogue 3 mM, PEP 40 μM, preliminary screen, average of two PEPCK preparations
[6] = from Dixon plots using two PEP concentrations
[7] = analogue 6 mM, PEP 40 μM, preliminary screen, average of two PEPCK preparations

## O=C(O)CCC(=O)O [Compound 3, Succinate]
[1]; [5]
  % Activity Remaining: 91^c %
[1]; [6]
  Ki: > 8000 µM

## O=P(O)(O)OP(=O)(O)O [Compound 28, Pyrophosphate]
[1]
  % Activity Remaining: 22^f %
  Ki: 172 µM
[1]; read-out: Ki, intercept effect (Kii)
  Ki: 63 µM and 64 µM
[1]; read-out: Ki, slope effect (Kis)
  Ki: 34 µM

## O=C(O)[C@@H](CO)OP(=O)(O)O [Compound 14, 2-D-Phosphoglycerate]
[1]
  Inhibition of PEPCK (in words): noninhibitory
[1]; [5]
  % Activity Remaining: 110^c %

## NC(CP(=O)(O)O)C(=O)O (centres unmarked) [Compound 18, 2-Amino-3-phosphonopropionate]
[1]
  Inhibition of PEPCK (in words): fails to inhibit
[1]; [5]
  % Activity Remaining: 94^c %

## O=P(O)(O)CCP(=O)(O)O [Compound 30, 1,2-Ethanediphosphonate]
[1]; PEP varied substrate
  Pattern of Inhibition: competitive
[1]; PEP varied substrate, Cleland kinetics program, 35° C., pH 7.0
  Ki: 5100 µM
[1]; PEP varied substrate, listed as 1,2-Ethanediphosphonate (30)
  Pattern of Inhibition: Competitive
[1]; [7]
  % Activity Remaining: 96^e %

## CC(C)(C(=O)O)S(=O)(=O)O [Compound 24, 2,2-Dimethylsulfoacetate]
[1]
  Ki relative to sulfoacetate: 25 fold
  Pattern of Inhibition: Competitive
[1]; [5]
  % Activity Remaining: 65^c %
[1]; pH 7
  Ki: 2100 ± 200 µM

## O=C(O)CNCP(=O)(O)O [Compound 17, N-Phosphonomethylglycine]
[1]; [5]
  % Activity Remaining: 104^c %

## C=C(CC(=O)O)C(=O)O [Compound 7, Itaconate]
[1]; [5]
  % Activity Remaining: 91^c %

## O=C(O)c1ncccc1S [MPA, 3-mercaptopicolinic acid]
[2]; read-out: apparent affinity
  Ki: ~100 µM
[2]; versus nucleotide
  Pattern of Inhibition: competitive with nucleotide binding

## O=S(=O)(O)CCS(=O)(=O)O [Compound 32, 1,2-Ethanedisulfonate]
[1]; [7]
  % Activity Remaining: 42^e %
[1]; [6]
  Ki: ~3000 µM
[1]; from Dixon plots using two PEP concentrations, listed as 1,2-Ethanedisulfonate (32)
  Ki: 3000 µM

## O=C(O)CSc1cccnc1C(=O)O [CMMP, 3-carboxymethylmercaptopicolinic acid]
[3]
  Ki: 12 µM
[3]; against PEP
  Pattern of Inhibition: competitive

## O=S(=O)(O)CS(=O)(=O)O [Compound 31, Methanedisulfonate]
[1]; PEP varied substrate
  Pattern of Inhibition: noncompetitive
[1]; PEP varied substrate, listed as Methanedisulfonate (31)
  Pattern of Inhibition: Noncompetitive
[1]; analogue 1.5 mM, PEP 40 μM, preliminary screen, average of two PEPCK preparations
  % Activity Remaining: 4^f %
[1]; read-out: Ki, intercept effect (Kii), noncompetitive, PEP varied substrate
  Ki: 168 ± 25 µM
[1]; read-out: Ki, slope effect (Kis), noncompetitive, PEP varied substrate, Cleland kinetics program
  Ki: 27 ± 3 µM

## N[C@@H](CC(=O)O)C(=O)O [Compound 9, L-Aspartate]
[1]; [5]
  % Activity Remaining: 112^c %

## NC(CCP(=O)(O)O)C(=O)O (centres unmarked) [Compound 19, 2-Amino-4-phosphonobutyrate]
[1]; [5]
  % Activity Remaining: 104^c %

## O=C(O)/C=C\C(=O)O [Compound 5, Maleate]
[1]; [7]
  % Activity Remaining: 52^e %
[1]; [6]
  Ki: ~2000 µM
[1]; from Dixon plots using two PEP concentrations, listed as Maleate (5)
  Ki: 2000 µM

## N[C@@H](CS(=O)O)C(=O)O [Compound 27, Cysteine sulfinic acid]
[1]
  Inhibition of PEPCK (in words): does not cause inhibition
[1]; [5]
  % Activity Remaining: 105^c %

## C[C@@H]1O[C@@H]1P(=O)(O)O [Compound 33, Phosphomycin]
[1]; [5]
  % Activity Remaining: 108^c %

B1: Rat Liver Cytosolic Phosphoenolpyruvate Carboxykinase (Rattus norvegicus) (protein)
chain: MPPQLHNGLDFSAKVIQGSLDSLPQEVRKFVEGNAQLCQPEYIHICDGSEEEYGRLLAHMQEEGVIRKLKKYDNCWLALTDPRDVARIESKTVIITQEQRDTVPIPKSGQSQLGRWMSEEDFEKAFNARFPGCMKGRTMYVIPFSMGPLGSPLAKIGIELTDSPYVVASMRIMTRMGTSVLEALGDGEFIKCLHSVGCPLPLKKPLVNNWACNPELTLIAHLPDRREIISFGSGYGGNSLLGKKCFALRIASRLAKEEGWLAEHMLILGITNPEGKKKYLAAAFPSACGKTNLAMMNPTLPGWKVECVGDDIAWMKFDAQGNLRAINPENGFFGVAPGTSVKTNPNAIKTIQKNTIFTNVAETSDGGVYWEGIDEPLAPGVTITSWKNKEWRPQDEEPCAHPNSRFCTPASQCPIIDPAWESPEGVPIEGIIFGGRRPAGVPLVYEALSWQHGVFVGAAMRSEATAAAEHKGKVIMHDPFAMRPFFGYNFGKYLAHWLSMAHRPAAKLPKIFHVNWFRKDKNGKFLWPGFGENSRVLEWMFGRIEGEDSAKLTPIGYVPKEDALNLKGLGDVNVEELFGISKEFWEKEVEEIDKYLEDQVNADLPYEIERELRALKQRISQM
[4]
  Km: 82 µM and 89 µM
